Converted amounts (≈) assume the structure as drawn. Read-outs that look alike come from different tables or passages of the source.
Tests used:
[1] = tested on: Gram-negative and Gram-positive organisms (clinical isolates); test: Broth microdilution MIC against clinical isolates (CLSI M7-A8), Table 9; assay type: cell-based
[2] = tested on: Legionella pneumophila, 70 isolates, serogroups 1-6; test: microbe, parasite or virus in culture; assay type: cell-based
Gram-positive pathogens = test: Broth microdilution MIC, respiratory/skin pathogens (Table 12); conditions: E. faecalis, VAN S (n = 53)
S. aureus Smith = test: Mouse systemic infection (septicemia) model, CD-1 mice; conditions: Staphylococcus aureus, in Mus musculus, 48 h; for responders at 3 mg/kg: iv, read-out: Percent survival at 48 hours, IV (3 mg/kg); for responders at 30 mg/kg: po, read-out: Percent survival at 48 hours, PO (30 mg/kg)
E. coli DH10B EC971 LacZ = test: MIC, E. coli DH10B recombinantly expressing control gene; conditions: E. coli DH10B, arabinose-induced, ampicillin in medium
[3] = tested on: E. coli DH10B EC1153 Tet(X); test: MIC, E. coli DH10B recombinantly expressing tetracycline-resistance gene; conditions: arabinose-induced, ampicillin in medium
E. coli DH10B EC969 TetM = test: as above; conditions: arabinose-induced, ampicillin in medium
E. coli DH10B EC970 TetK = test: as above; conditions: arabinose-induced, ampicillin in medium
[4] = tested on: E. coli DH10B EC1082 TetA; test: as above; conditions: arabinose-induced, ampicillin in medium
[5] = tested on: E. coli DH10B EC1083 TetB; test: as above; conditions: arabinose-induced, ampicillin in medium

**Q.** CC[C@H]1OC(=O)[C@H](C)[C@@H](O[C@H]2C[C@@](C)(OC)[C@@H](O)[C@H](C)O2)[C@H](C)[C@@H](O[C@@H]2O[C@H](C)C[C@H](N(C)C)[C@H]2O)[C@](C)(O)C[C@@H](C)C(=O)[C@H](C)[C@@H](O)[C@]1(C)O [Erythromycin] was tested. Which MIC50 [1] did it give?
**A.** 0.03 µg/mL (≈ 0.0409 µM)

**Q.** And the MIC90 [1]?
**A.** > 0.5 µg/mL

**Q.** And the MIC50 ([1]; Staphylococcus aureus)?
**A.** > 4 µg/mL

**Q.** And the MIC90 ([1]; Staphylococcus aureus)?
**A.** > 4 µg/mL

**Q.** What about the MIC50 ([1]; Streptococcus anginosus) of the same compound?
**A.** 0.03 µg/mL (≈ 0.0409 µM)

**Q.** And the MIC90 ([1]; Streptococcus anginosus)?
**A.** > 0.5 µg/mL

**Q.** What about the MIC50 ([1]; Streptococcus intermedius) of the same compound?
**A.** 0.06 µg/mL (≈ 0.0818 µM)

**Q.** What about the MIC90 ([1]; Streptococcus intermedius) of the same compound?
**A.** > 0.5 µg/mL

**Q.** And the MIC50 ([1]; Streptococcus mitis)?
**A.** > 0.5 µg/mL

**Q.** And the MIC90 ([1]; Streptococcus mitis)?
**A.** > 0.5 µg/mL

**Q.** And the MIC50 [2]?
**A.** 0.25 µg/mL (≈ 0.341 µM)

**Q.** What about the MIC90 [2] of the same compound?
**A.** 0.5 µg/mL (≈ 0.681 µM)

**Q.** C[C@@H](O)[C@H]1C(=O)N2C(C(=O)O)=C(SCCN=CN)C[C@H]12 [Imipenern] was tested. Which MIC50 (Gram-positive pathogens) did it give?
**A.** 1 µg/mL (≈ 3.34 µM)

**Q.** And the MIC90 (Gram-positive pathogens)?
**A.** 1 µg/mL (≈ 3.34 µM)

**Q.** CN(C)[C@@H]1C(O)=C(C(N)=O)C(=O)[C@@]2(O)C(O)=C3C(=O)c4c(O)c5c(c(F)c4C[C@H]3C[C@@H]12)CN(C(C)(C)C1CC1)C5 [Compound 118] was tested. Which responders at 3 mg/kg (S. aureus Smith) did it give?
**A.** 17%

**Q.** What about the responders at 30 mg/kg (S. aureus Smith) of the same compound?
**A.** 50%

**Q.** For CN(C)CC(=O)N1Cc2c(O)c3c(c(F)c2C1)C[C@H]1C[C@H]2[C@H](N(C)C)C(O)=C(C(N)=O)C(=O)[C@@]2(O)C(O)=C1C3=O [Compound 131], which responders at 3 mg/kg (S. aureus Smith) is on record?
**A.** 100%

**Q.** And the responders at 30 mg/kg (S. aureus Smith)?
**A.** 17%

**Q.** COc1c2c(c(O)c3c1C[C@H]1C[C@H]4[C@H](N(C)C)C(O)=C(C(N)=O)C(=O)[C@@]4(O)C(O)=C1C3=O)CN(C(C)(C)C)C2 [Compound 125] was tested. Which responders at 3 mg/kg (S. aureus Smith) did it give?
**A.** 100%

**Q.** What about the responders at 30 mg/kg (S. aureus Smith) of the same compound?
**A.** 33%

**Q.** Which MIC50 (Gram-positive pathogens) does the source give for CCC[C@@H]1C[C@@H](C(=O)N[C@@H]([C@H]2O[C@H](SC)[C@H](O)[C@@H](O)[C@H]2O)[C@H](C)Cl)N(C)C1 [Clindarnycin] here?
**A.** > 2 µg/mL

**Q.** What about the MIC90 (Gram-positive pathogens) of the same compound?
**A.** > 2 µg/mL

**Q.** Which results are given for CCC(C)(C)N1Cc2c(O)c3c(c(F)c2C1)C[C@H]1C[C@H]2[C@H](N(C)C)C(O)=C(C(N)=O)C(=O)[C@@]2(O)C(O)=C1C3=O [Compound 129]?
**A.** responders at 3 mg/kg (S. aureus Smith): 50%; responders at 30 mg/kg (S. aureus Smith): 0%

**Q.** Which results are given for CC(C)C[C@@H]1CNc2c(O)c3c(c(F)c2CN1)C[C@H]1C[C@H]2[C@H](N(C)C)C(O)=C(C(N)=O)C(=O)[C@@]2(O)C(O)=C1C3=O [Compound 408]?
**A.** responders at 3 mg/kg (S. aureus Smith): 100%; responders at 30 mg/kg (S. aureus Smith): 0%

**Q.** CN(C)[C@@H]1C(O)=C(C(N)=O)C(=O)[C@@]2(O)C(O)=C3C(=O)c4c(O)c5c(c(F)c4C[C@H]3C[C@@H]12)CN1CCC[C@H]1C(=O)N5 [Compound 412] was tested. Which responders at 3 mg/kg (S. aureus Smith) did it give?
**A.** 100%

**Q.** And the responders at 30 mg/kg (S. aureus Smith)?
**A.** 40%

**Q.** What does the source list for CO/N=C(\C(=O)N[C@@H]1C(=O)N2C(C(=O)O)=C(CSc3nc(=O)c(=O)[nH]n3C)CS[C@H]12)c1csc(N)n1 [Ceftriaxone]?
**A.** MIC EC971 LacZ (E. coli DH10B EC971 LacZ): 0.125; MIC EC1153 Tet(X) [3]: 0.125; MIC EC969 TetM (E. coli DH10B EC969 TetM): 0.5; MIC EC970 TetK (E. coli DH10B EC970 TetK): 0.0625; MIC EC1082 TetA [4]: 0.0625; MIC EC1083 TetB [5]: 0.0625

**Q.** How did the responders at 3 mg/kg (S. aureus Smith) turn out when CC(C)CN1CC(=O)Nc2c(O)c3c(c(F)c2C1)C[C@H]1C[C@H]2[C@H](N(C)C)C(O)=C(C(N)=O)C(=O)[C@@]2(O)C(O)=C1C3=O [Compound 400] was run?
**A.** 100%

**Q.** What about the responders at 30 mg/kg (S. aureus Smith) of the same compound?
**A.** 0%

**Q.** CN1CC(=O)Nc2c(O)c3c(c(F)c2C1)C[C@H]1C[C@H]2[C@H](N(C)C)C(O)=C(C(N)=O)C(=O)[C@@]2(O)C(O)=C1C3=O [Compound 416] was tested. Which responders at 3 mg/kg (S. aureus Smith) did it give?
**A.** 100%

**Q.** And the responders at 30 mg/kg (S. aureus Smith)?
**A.** 20%

**Q.** What does the source list for CN(C)[C@@H]1C(O)=C(C(N)=O)C(=O)[C@@]2(O)C(O)=C3C(=O)c4c(O)c5c(c(F)c4C[C@H]3C[C@@H]12)CN1CCCC[C@@H]1C(=O)N5 [Compound 410]?
**A.** responders at 3 mg/kg (S. aureus Smith): 100%; responders at 30 mg/kg (S. aureus Smith): 50%

**Q.** What does the source list for CCC(C)(C)N1Cc2c(O)c3c(c(N(C)C)c2C1)C[C@H]1C[C@H]2[C@H](N(C)C)C(O)=C(C(N)=O)C(=O)[C@@]2(O)C(O)=C1C3=O [Compound 103]?
**A.** responders at 3 mg/kg (S. aureus Smith): 83%; responders at 30 mg/kg (S. aureus Smith): 100%

**Q.** What does the source list for CC(C)[C@H](C)N1Cc2c(O)c3c(c(F)c2C1)C[C@H]1C[C@H]2[C@H](N(C)C)C(O)=C(C(N)=O)C(=O)[C@@]2(O)C(O)=C1C3=O [Compound 137]?
**A.** responders at 3 mg/kg (S. aureus Smith): 33%; responders at 30 mg/kg (S. aureus Smith): 33%

**Q.** For CC(C)N1Cc2c(O)c3c(c(N(C)C)c2C1)C[C@H]1C[C@H]2[C@H](N(C)C)C(O)=C(C(N)=O)C(=O)[C@@]2(O)C(O)=C1C3=O [Compound 135], which responders at 3 mg/kg (S. aureus Smith) is on record?
**A.** 100%

**Q.** What about the responders at 30 mg/kg (S. aureus Smith) of the same compound?
**A.** 100%

**Q.** Which results are given for CN(C)[C@@H]1C(O)=C(C(N)=O)C(=O)[C@@]2(O)C(O)=C3C(=O)c4c(O)c5c(c(F)c4C[C@H]3C[C@@H]12)CN(C1CCC1)C5 [Compound 132]?
**A.** responders at 3 mg/kg (S. aureus Smith): 50%; responders at 30 mg/kg (S. aureus Smith): 50%

**Q.** For CCCN1Cc2c(O)c3c(c(Cl)c2C1)C[C@H]1C[C@H]2[C@H](N(C)C)C(O)=C(C(N)=O)C(=O)[C@@]2(O)C(O)=C1C3=O [Compound 149], which responders at 3 mg/kg (S. aureus Smith) is on record?
**A.** 17%

**Q.** And the responders at 30 mg/kg (S. aureus Smith)?
**A.** 0%
